Test system: HCV genotype 1b replicon in Huh 7 cells
Test: HCV replicon assay (1b_Huh-Luc/Neo-ET cell line, luciferase readout)
Type: cell-based
Conditions: Hepatitis C virus, Huh-7; HCV 1b replicon; read-out: Inhibition of HCV genotype 1b
In short: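 Huh 7 cells carrying a bicistronic genotype 1b luciferase replicon were treated with compound in triplicate the day after plating and incubated 72 h. Luciferase activity expressed as % of untreated control; EC50 from a four-parameter logistic fit, repeated several times.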

COC(=O)N[C@H](C(=O)N1CCC[C@H]1c1ncc(-c2ccc(-c3ccc4cc(-c5cnc([C@@H]6CSCN6C(=O)[C@@H](NC(=O)OC)C(C)C)[nH]5)ccc4c3)cc2)[nH]1)C(C)C [compound 451] and COC(=O)N[C@H](C(=O)N1CCCC[C@H]1c1ncc(-c2ccc(-c3ccc4cc(-c5cnc([C@@H]6CCCN6C(=O)[C@@H](NC(=O)OC)C(C)C)[nH]5)ccc4n3)cc2)[nH]1)C(C)C [compound 455] cannot be ordered by EC50: < 1 nM for the first, < 1 nM for the second.

COC(=O)N[C@H](C(=O)N1CCC[C@H]1c1ncc(-c2ccc3nc(-c4ccc(-c5cnc([C@@H]6CCCN6C(=O)[C@H](NC(=O)OC6CCOCC6)c6ccccc6)[nH]5)c(F)c4)ccc3c2)[nH]1)C(C)C [compound 452] and COC(=O)N[C@H](C(=O)N1CCC[C@H]1c1ncc(-c2ccc3nc(-c4ccc(-c5cnc([C@@H]6CCCN6C(=O)[C@H](NC(=O)OC)c6ccccc6)[nH]5)c(F)c4)ccc3c2)[nH]1)C(C)C [compound 453] cannot be ordered by EC50: < 1 nM for the first, < 1 nM for the second.

COC(=O)N[C@H](C(=O)N1CCC[C@H]1c1ncc(-c2ccc3nc(-c4ccc(-c5cnc([C@@H]6CCCN6C(=O)[C@@H](NC(=O)OC)C6CCOCC6)[nH]5)c(F)c4)ccc3c2)[nH]1)C(C)C [compound 454] and COC(=O)N[C@H](C(=O)N1CCCC[C@H]1c1ncc(-c2ccc(-c3ccc4cc(-c5cnc([C@@H]6CCCN6C(=O)[C@@H](NC(=O)OC)C6CCOCC6)[nH]5)ccc4n3)cc2)[nH]1)C1CCOCC1 [compound 456] cannot be ordered by EC50: < 1 nM for the first, < 1 nM for the second.

Same assay, conditions: Hepatitis C virus; Table 2; genotype 1b replicon, Huh 7 cells, 72 h, luciferase; read-out: Inhibition of HCV genotype 1b

COC(=O)N[C@H](C(=O)N1CCC[C@H]1c1ncc(-c2ccc3cc(-c4ccc5nc([C@@H]6COCCN6C(=O)[C@@H](NC(=O)OC)[C@@H](C)OC)[nH]c5c4)ccc3c2)[nH]1)[C@@H](C)OC [compound 354] and COC(=O)N[C@H](C(=O)N1CCC[C@H]1c1ncc(-c2ccc3cc(-c4ccc5nc([C@@H]6COCCN6C(=O)[C@@H](NC(=O)OC)[C@@H](C)O)[nH]c5c4)ccc3c2)[nH]1)[C@@H](C)O [compound 355] cannot be ordered by EC50: < 1 nM for the first, < 1 nM for the second.

COC(=O)N[C@H](C(=O)N1CCC[C@H]1c1ncc(-c2ccc3cc(-c4ccc5nc([C@@H]6COCCN6C(=O)[C@@H](NC(=O)OC)C6CC6)[nH]c5c4)ccc3c2)[nH]1)C1CC1 [compound 356] and COC(=O)N[C@H](C(=O)N1CCC[C@H]1c1ncc(-c2ccc3cc(-c4ccc5nc([C@@H]6COCCN6C(=O)[C@@H](NC(=O)OC)C6CCCCC6)[nH]c5c4)ccc3c2)[nH]1)C1CCCCC1 [compound 361] cannot be ordered by EC50: < 1 nM for the first, < 1 nM for the second.

CC[C@H](NC(=O)OC)C(=O)N1CCC[C@H]1c1ncc(-c2ccc3cc(-c4ccc5nc([C@@H]6COCCN6C(=O)[C@H](CC)NC(=O)OC)[nH]c5c4)ccc3c2)[nH]1 [compound 357] and COC(=O)N[C@@H](C)C(=O)N1CCC[C@H]1c1ncc(-c2ccc3cc(-c4ccc5nc([C@@H]6COCCN6C(=O)[C@H](C)NC(=O)OC)[nH]c5c4)ccc3c2)[nH]1 [compound 359] cannot be ordered by EC50: < 1 nM for the first, < 1 nM for the second.

COC(=O)N[C@H](C(=O)N1CCC[C@H]1c1ncc(-c2ccc3cc(-c4ccc5nc([C@@H]6CCCN6C(=O)[C@@H](NC(=O)OC)C6CCCC6)[nH]c5c4)ncc3c2)[nH]1)C1CCCC1 [compound 372] and COC(=O)N[C@H](C(=O)N1CCC[C@H]1c1ncc(-c2ccc3cc(-c4ccc5nc([C@@H]6CCCN6C(=O)[C@@H](NC(=O)OC)C6CCCCC6)[nH]c5c4)ncc3c2)[nH]1)C1CCCCC1 [compound 379] cannot be ordered by EC50: < 1 nM for the first, < 1 nM for the second.

CC[C@H](C)[C@H](NC(=O)OC)C(=O)N1CCC[C@H]1c1ncc(-c2ccc3cc(-c4ccc5nc([C@@H]6CCCN6C(=O)[C@@H](NC(=O)OC)[C@@H](C)CC)[nH]c5c4)ncc3c2)[nH]1 [compound 374] and CC[C@@H](C)[C@H](NC(=O)OC)C(=O)N1CCC[C@H]1c1ncc(-c2ccc3cc(-c4ccc5nc([C@@H]6CCCN6C(=O)[C@@H](NC(=O)OC)[C@H](C)CC)[nH]c5c4)ncc3c2)[nH]1 [compound 375] cannot be ordered by EC50: < 1 nM for the first, < 1 nM for the second.

COC(=O)N[C@H](C(=O)N1CCC[C@H]1c1ncc(-c2ccc3cc(-c4ccc5nc([C@@H]6CCCN6C(=O)[C@@H](NC(=O)OC)C6CC6)[nH]c5c4)ncc3c2)[nH]1)C1CC1 [compound 376] and COC(=O)N[C@H](C(=O)N1CCC[C@H]1c1ncc(-c2ccc3cc(-c4cc5[nH]c([C@@H]6CCCN6C(=O)[C@@H](NC(=O)OC)C6CC6)nc5cn4)ccc3c2)[nH]1)C1CC1 [compound 414] cannot be ordered by EC50: < 1 nM for the first, < 1 nM for the second.

COC(=O)N[C@H](C(=O)N1CCC[C@H]1c1ncc(-c2ccc3cc(-c4ccc5nc([C@@H]6CCCN6C(=O)[C@@H](NC(=O)OC)[C@@H](C)OC)[nH]c5c4)ncc3c2)[nH]1)[C@@H](C)OC [compound 377] and COC(=O)N[C@H](C(=O)N1CCC[C@H]1c1ncc(-c2ccc3cc(-c4cc5[nH]c([C@@H]6CCCN6C(=O)[C@@H](NC(=O)OC)[C@@H](C)OC)nc5cn4)ccc3c2)[nH]1)[C@@H](C)OC [compound 415] cannot be ordered by EC50: < 1 nM for the first, < 1 nM for the second.

COC(=O)N[C@H](C(=O)N1CCC[C@H]1c1ncc(-c2ccc3nc(-c4ccc5nc([C@@H]6CCCN6C(=O)[C@@H](NC(=O)OC)C6CCCC6)[nH]c5c4)ccc3c2)[nH]1)C1CCCC1 [compound 381] and COC(=O)N[C@H](C(=O)N1CCC[C@H]1c1ncc(-c2ccc3nc(-c4ccc5nc([C@@H]6CCCN6C(=O)[C@@H](NC(=O)OC)C6CCCCC6)[nH]c5c4)ccc3c2)[nH]1)C1CCCCC1 [compound 388] cannot be ordered by EC50: < 1 nM for the first, < 1 nM for the second.

CCC(CC)[C@H](NC(=O)OC)C(=O)N1CCC[C@H]1c1ncc(-c2ccc3nc(-c4ccc5nc([C@@H]6CCCN6C(=O)[C@@H](NC(=O)OC)C(CC)CC)[nH]c5c4)ccc3c2)[nH]1 [compound 382] and CC[C@H](C)[C@H](NC(=O)OC)C(=O)N1CCC[C@H]1c1ncc(-c2ccc3nc(-c4ccc5nc([C@@H]6CCCN6C(=O)[C@@H](NC(=O)OC)[C@@H](C)CC)[nH]c5c4)ccc3c2)[nH]1 [compound 383] cannot be ordered by EC50: < 1 nM for the first, < 1 nM for the second.

CC[C@@H](C)[C@H](NC(=O)OC)C(=O)N1CCC[C@H]1c1ncc(-c2ccc3nc(-c4ccc5nc([C@@H]6CCCN6C(=O)[C@@H](NC(=O)OC)[C@H](C)CC)[nH]c5c4)ccc3c2)[nH]1 [compound 384] and CC[C@@H](C)[C@H](NC(=O)OC)C(=O)N1CCC[C@H]1c1ncc(-c2ccc3cc(-c4ccc5nc([C@@H]6CCCN6C(=O)[C@@H](NC(=O)OC)[C@H](C)CC)[nH]c5c4)nnc3c2)[nH]1 [compound 396] cannot be ordered by EC50: < 1 nM for the first, < 1 nM for the second.

COC(=O)N[C@H](C(=O)N1CCC[C@H]1c1ncc(-c2ccc3nc(-c4ccc5nc([C@@H]6CCCN6C(=O)[C@@H](NC(=O)OC)C6CC6)[nH]c5c4)ccc3c2)[nH]1)C1CC1 [compound 385] and COC(=O)N[C@H](C(=O)N1CCC[C@H]1c1ncc(-c2ccc3cc(-c4cnc5nc([C@@H]6CCCN6C(=O)[C@@H](NC(=O)OC)C6CC6)[nH]c5c4)ccc3c2)[nH]1)C1CC1 [compound 406] cannot be ordered by EC50: < 1 nM for the first, < 1 nM for the second.

COC(=O)N[C@H](C(=O)N1CCC[C@H]1c1ncc(-c2ccc3nc(-c4ccc5nc([C@@H]6CCCN6C(=O)[C@@H](NC(=O)OC)[C@@H](C)OC)[nH]c5c4)ccc3c2)[nH]1)[C@@H](C)OC [compound 386] and COC(=O)N[C@H](C(=O)N1CCC[C@H]1c1ncc(-c2ccc3cc(-c4ccc5nc([C@@H]6CCCN6C(=O)[C@@H](NC(=O)OC)C(C)C)[nH]c5c4)nnc3c2)[nH]1)C(C)C [compound 390] cannot be ordered by EC50: < 1 nM for the first, < 1 nM for the second.

COC(=O)N[C@H](C(=O)N1CCC[C@H]1c1ncc(-c2ccc3cc(-c4ccc5nc([C@@H]6CCCN6C(=O)[C@@H](NC(=O)OC)C6CCCC6)[nH]c5c4)nnc3c2)[nH]1)C1CCCC1 [compound 393] and COC(=O)N[C@H](C(=O)N1CCC[C@H]1c1ncc(-c2ccc3cc(-c4ccc5nc([C@@H]6CCCN6C(=O)[C@@H](NC(=O)OC)C6CCCCC6)[nH]c5c4)nnc3c2)[nH]1)C1CCCCC1 [compound 400] cannot be ordered by EC50: < 1 nM for the first, < 1 nM for the second.

First: COC(=O)N[C@H](C(=O)N1CCC[C@H]1c1ncc(-c2ccc3cc(-c4cnc5nc([C@@H]6CCCN6C(=O)[C@@H](NC(=O)OC)C(C)C)[nH]c5c4)ccc3c2)[nH]1)C(C)C [compound 402]
Second: CC[C@H](C)[C@H](NC(=O)OC)C(=O)N1CCC[C@H]1c1ncc(-c2ccc3cc(-c4cnc5nc([C@@H]6CCCN6C(=O)[C@@H](NC(=O)OC)[C@@H](C)CC)[nH]c5c4)ccc3c2)[nH]1 [compound 404]
The EC50 of the first is higher: 1 to 9.9 nM for the first, < 1 nM for the second.

COC(=O)N[C@H](C(=O)N1CCC[C@H]1c1ncc(-c2ccc3cc(-c4cnc5nc([C@@H]6CCCN6C(=O)[C@@H](NC(=O)OC)C6CCCC6)[nH]c5c4)ccc3c2)[nH]1)C1CCCC1 [compound 403] and COC(=O)N[C@H](C(=O)N1CCC[C@H]1c1ncc(-c2ccc3cc(-c4cnc5nc([C@@H]6CCCN6C(=O)[C@@H](NC(=O)OC)C6CCCCC6)[nH]c5c4)ccc3c2)[nH]1)C1CCCCC1 [compound 409] cannot be ordered by EC50: < 1 nM for the first, < 1 nM for the second.

CC[C@@H](C)[C@H](NC(=O)OC)C(=O)N1CCC[C@H]1c1ncc(-c2ccc3cc(-c4cnc5nc([C@@H]6CCCN6C(=O)[C@@H](NC(=O)OC)[C@H](C)CC)[nH]c5c4)ccc3c2)[nH]1 [compound 405] and CC[C@H](C)[C@H](NC(=O)OC)C(=O)N1CCC[C@H]1c1ncc(-c2ccc3cc(-c4cc5[nH]c([C@@H]6CCCN6C(=O)[C@@H](NC(=O)OC)[C@@H](C)CC)nc5cn4)ccc3c2)[nH]1 [compound 412] cannot be ordered by EC50: < 1 nM for the first, < 1 nM for the second.

COC(=O)N[C@H](C(=O)N1CCC[C@H]1c1ncc(-c2ccc3cc(-c4cc5[nH]c([C@@H]6CCCN6C(=O)[C@@H](NC(=O)OC)C6CCCC6)nc5cn4)ccc3c2)[nH]1)C1CCCC1 [compound 411] and COC(=O)N[C@H](C(=O)N1CCC[C@H]1c1ncc(-c2ccc3cc(-c4cc5[nH]c([C@@H]6CCCN6C(=O)[C@@H](NC(=O)OC)C6CCCCC6)nc5cn4)ccc3c2)[nH]1)C1CCCCC1 [compound 417] cannot be ordered by EC50: < 1 nM for the first, < 1 nM for the second.

CC[C@@H](C)[C@H](NC(=O)OC)C(=O)N1CCC[C@H]1c1ncc(-c2ccc3cc(-c4cc5[nH]c([C@@H]6CCCN6C(=O)[C@@H](NC(=O)OC)[C@H](C)CC)nc5cn4)ccc3c2)[nH]1 [compound 413] was tested, and the EC50 was < 1 nM.

Source: US8877707B2, “Inhibitors of HCV NS5A” (Presidio Pharmaceuticals, Inc., priority 2010, dated 2014)
